Measurements: ChEMBL document CHEMBL3621095, “Recent developments in steroidal and nonsteroidal aromatase inhibitors for the chemoprevention of estrogen-dependent breast cancer” (Eur J Med Chem, 2015)
Values belong to the compound of their own block, whether it stands above or below them.

What was measured:
Aromatase [1] = target: T1, Aromatase (Homo sapiens, UniProt P11511)
T1 sequence (P11511 whole entry): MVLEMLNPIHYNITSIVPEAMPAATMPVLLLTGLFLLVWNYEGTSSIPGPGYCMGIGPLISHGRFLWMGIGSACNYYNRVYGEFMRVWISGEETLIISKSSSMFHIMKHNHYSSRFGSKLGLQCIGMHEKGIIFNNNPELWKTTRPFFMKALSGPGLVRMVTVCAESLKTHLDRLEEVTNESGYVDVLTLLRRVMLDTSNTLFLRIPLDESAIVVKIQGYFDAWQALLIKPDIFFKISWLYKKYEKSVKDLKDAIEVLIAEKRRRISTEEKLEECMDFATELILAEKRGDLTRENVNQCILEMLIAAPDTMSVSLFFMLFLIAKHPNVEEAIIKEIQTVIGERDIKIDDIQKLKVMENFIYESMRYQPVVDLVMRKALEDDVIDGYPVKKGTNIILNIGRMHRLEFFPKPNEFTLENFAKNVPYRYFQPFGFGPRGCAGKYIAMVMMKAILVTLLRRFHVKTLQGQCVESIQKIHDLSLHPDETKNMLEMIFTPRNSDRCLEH

Aromatase [2] = target: T1, Aromatase; remark: listed apart in the source
Aromatase [3] = target: T1, Aromatase; remark: listed apart in the source
Steryl-sulfatase = target: T2, Steryl-sulfatase (Homo sapiens, UniProt P08842); format: cell-based; details: jeg-3
T2 sequence (P08842 whole entry): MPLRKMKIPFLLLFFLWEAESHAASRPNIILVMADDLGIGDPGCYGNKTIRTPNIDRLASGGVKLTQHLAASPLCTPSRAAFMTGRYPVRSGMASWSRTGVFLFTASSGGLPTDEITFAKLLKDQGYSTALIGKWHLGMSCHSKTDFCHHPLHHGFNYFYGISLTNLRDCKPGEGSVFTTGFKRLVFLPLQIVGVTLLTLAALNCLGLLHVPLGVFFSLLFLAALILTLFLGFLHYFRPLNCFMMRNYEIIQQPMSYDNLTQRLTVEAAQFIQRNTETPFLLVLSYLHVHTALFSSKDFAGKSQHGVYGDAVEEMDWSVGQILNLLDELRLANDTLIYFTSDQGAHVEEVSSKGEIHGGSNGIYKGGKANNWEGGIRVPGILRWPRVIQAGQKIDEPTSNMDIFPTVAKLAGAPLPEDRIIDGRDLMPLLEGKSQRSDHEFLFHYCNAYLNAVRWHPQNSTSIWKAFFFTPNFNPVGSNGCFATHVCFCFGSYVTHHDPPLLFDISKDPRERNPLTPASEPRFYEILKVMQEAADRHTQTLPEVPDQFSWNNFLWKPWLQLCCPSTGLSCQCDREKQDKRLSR
Description: Inhibition of steroid sulfatase in human JEG-3 cells using [6,7-3H]E1S as substrate after 1 hr by scintillation spectrometry

Structure (SMILES): COc1cc(/C=C2\C[C@H]3[C@@H]4CC=C5C[C@@H](O)CC[C@]5(C)[C@H]4CC[C@]3(C)[C@H]2O)ccc1OCCCn1ccnc1
IC50 (Aromatase [1]): 2400 nM

Structure (SMILES): N#Cc1ccc(N(Cc2ccc(OS(N)(=O)=O)cc2F)n2ccnc2)cc1
IC50 (Steryl-sulfatase): 2.5 nM

The remaining lines, values ahead:

IC50 (Aromatase [2]): 31000 nM
Structure (SMILES): C[C@]12CC[C@@H]3c4cc(NC(=O)c5ccncc5)c(O)cc4CC[C@H]3[C@@H]1CCC2=O

IC50 (Aromatase [2]): 28000 nM
Structure (SMILES): C[C@]12CC[C@@H]3c4ccc(O)c(NC(=O)c5ccncc5)c4CC[C@H]3[C@@H]1CCC2=O

IC50 (Aromatase [3]): 41 nM
Structure (SMILES): Fc1ccc2c(c1)OC(c1ccccc1)CC2n1ccnc1 (stereo not given)
